Results taken from PubChem BioAssay AID743267 (Broad Institute, 2014).

Each compound was assayed on human bronchial epithelial cells, CFTR corrector, plate reader (assay: rescue of ΔF508 CFTR function, airway epithelium – human bronchial epithelial cells, plate reader, cherry-pick, two tests, dose response (AID 743267)). Details: measured here: test 1 replicate run.

SMILES | AC50 [µM]
COc1cccc(-c2cccc(-c3nc(C(=O)NCC(F)(F)F)cc4c3[C@H](CCO)N([S@@](=O)C(C)(C)C)C4)c2)c1 | 2.75
C[C@@H]1CN([C@H](C)CO)S(=O)(=O)c2ccc(-c3ccc(C#N)cc3)cc2O[C@H]1CN(C)Cc1ccccn1 | 16
COc1cccc(S(=O)(=O)N(C)C[C@@H]2Oc3cc(C4=CCCC4)ccc3S(=O)(=O)N([C@H](C)CO)C[C@H]2C)c1 | 16
C[C@@H]1CN([C@@H](C)CO)C(=O)Cc2cc(N(C)C)ccc2O[C@@H]1CN(C)Cc1ccc(C(=O)Nc2ccccc2N)cc1 | 10.3
COc1ccccc1S(=O)(=O)N1CC[C@@H]2[C@@H](CO)N(C)c3ccc(-c4ccc(F)cc4)cc3[C@@H]21 | 15
COc1ccc(S(=O)(=O)N2CC[C@@H]3[C@@H](CO)Nc4ccc(-c5cccc(C#N)c5)cc4[C@@H]32)cc1 | 16
C[C@@H]1CN([C@@H](C)CO)C(=O)Cc2cc(N(C)C)ccc2O[C@@H]1CN(C)Cc1ccccc1 | 3.78
COc1ccc(S(=O)(=O)N2CC[C@@H]3[C@@H](CO)Nc4ccc(-c5ccc(C#N)cc5)cc4[C@@H]32)cc1 | 1.57
Cc1ccc(-c2ccc3c(c2)O[C@H](CN(C)Cc2ccccn2)[C@@H](C)CN([C@H](C)CO)S3(=O)=O)cc1 | 5.08
COc1ccc(S(=O)(=O)N2CC[C@@H]3[C@@H](CO)N(C)c4ccc(-c5ccc(F)cc5)cc4[C@@H]32)cc1 | 13
C[C@H]1CCCCO[C@@H](CN(C)C(=O)C2CCCCC2)[C@@H](C)CN([C@@H](C)CO)C(=O)c2cc(NC(=O)Nc3ccc(C(F)(F)F)cc3)ccc2O1 | 15.8
N#Cc1ccc(-c2ccc3c(c2)[C@H]2[C@H](CCN2S(=O)(=O)c2ccccc2F)[C@@H](CO)N3)cc1 | 6.96
COc1cccc(S(=O)(=O)N2C[C@@H]3N[C@H](C2)C3c2ccc(-c3cccc(C)c3)cc2)c1 (stereo partly specified) | 16
COc1ccc(S(=O)(=O)Nc2ccc3c(c2)C(=O)N([C@H](C)CO)C[C@@H](C)[C@@H](CN(C)Cc2ccc(Cl)c(Cl)c2)O3)cc1 | 4.82

Same assay, conditions: measured here: test 2 replicate run

SMILES | AC50 [µM]
Cc1ccc(-c2cccc(CN3CCN(C(C)C)C(CCO)C3)c2)o1 (stereo unspecified) | > 50
CC1(C)OC(c2ccccc2)=C/C(=C/C=C2C(=O)NC(=S)NC2=O)O1 | 16.9
COc1ccc2c(c1)sc(N)[n+]2Cc1cc(C)cc2cccnc12 | 1.04
CN1/C(=C\C=C2/SC(=S)N(CC(=O)O)C2=O)C(C)(C)c2ccccc21 | 16
CC1(S(=O)(=O)O)CC(=O)c2ccccc2C1=O (stereo unspecified) | 28.6
COc1cccc(/C=N/Nc2ncnc(Cl)c2N)c1O | 12.8
CCOC(=O)c1[nH]c(C)c(/C(O)=C2\C(=O)C(=O)N(CCCN3CCOCC3)C2c2cccs2)c1C (stereo unspecified) | 19.4
CCCCN1C(=O)/C(=C/C=C2\Oc3ccccc3N2CC)SC1=S | 9.56
Cc1ccc(-c2csc(Nc3ccccn3)n2)cc1 | 26.4
COc1ccc(OC)c(/C(C)=N\NC(=O)c2cc3cc(Cl)ccc3n2C)c1 | 8.3
Nc1ccc2c3c(cccc13)C(=O)N(c1ccccc1)C2=O | 16
COc1ccc(C)cc1Nc1c2c(nc3ccccc13)CCC2 | 0.708
COc1cc(NC(=O)N2CCNC2=O)cc(C(=O)Nc2cccc(C(F)(F)F)c2)c1 | 5.11
CN(C)CCNc1ccc2ncn3c4ccc(O)cc4c(=O)c1c23 | 2.03
O=C(NCCOc1ccccc1)c1cc([N+](=O)[O-])ccc1N1CCOCC1 | 2.66
Cc1cc2nnc(SCC(=O)NCc3ccco3)n2c2ccccc12 | 6.63
COc1cc(/C=C/C(=O)c2ccc3c(c2)OCO3)cc(Cl)c1O | 15.6
COc1cc2c(c(Br)c1N)-c1cc(Br)c(N)cc1C2=O | > 50
CC(=O)N1CCc2c(sc(NC(=O)c3ccc4c(c3)OCCO4)c2C#N)C1 | 7.74
COc1cccc(N2CCN(C(=O)c3ccc(CS(=O)c4ccc(Cl)cc4)o3)CC2)c1 (stereo unspecified) | 1.48
COc1ccc(C(=O)NCC(c2ccco2)N2CCc3ccccc32)cc1 (stereo unspecified) | 2.69
CCCC(=O)Nc1ccc2c(c1)nc(CN1CCN(C(=O)OCC)CC1)n2CC | 8.58
Cc1ccc(S(=O)(=O)N2C[C@H]3[C@H]4C(=O)N(C)C(=O)[C@H]4CC(=O)[C@H]3[C@@H]2c2ccccc2F)cc1 | 37.1

SMILES | AC50 [µM]
O=S(=O)(c1ccc(Br)cc1)N1CCCc2ccccc21 | > 50
CC(C)Oc1ncnc2c1[nH]c1ccccc12 | 9.38
COC(=O)c1cc(C(=O)N2CCN(c3cccc(Cl)c3)CC2)cc([N+](=O)[O-])c1 | 0.383
COc1cc(SC)ccc1C(=O)N1CCN(c2ccccc2OC)CC1 | 6.62
CC1(C(=O)NCc2ccccc2)Cc2c(-c3ccc(C(N)=O)cc3)ccnc2O1 (stereo unspecified) | 5.22
CCN(CC(=O)Nc1c(F)cccc1F)C(=O)C1CC1 | 33.1
COc1ccc2c(c1)/C(=C/c1cc(OC)c(OC)c(OC)c1)C(=O)N2 | 2.04
COc1ccc2sc3cccc(NCCN(C)C)c3c(=O)c2c1 | 8.47
N#CC1=C(N)OC2=C(CCc3ccccc32)C1c1ccccc1Cl (stereo unspecified) | 2.61
COc1cc(OC)cc(C(=O)N2CC(=O)Nc3ccccc32)c1 | 2.1
COc1cc(C(=O)c2cocc2C(=O)c2ccc3c(c2)OCO3)cc(OC)c1OC | 0.451
Cc1ccnc2c1ccc1cccnc12 | 18.3
C[C@@H](N)Cc1cnc[nH]1 | 20.1
CO[C@@]12[C@@H]3N[C@@H]3CN1C1=C(C(=O)C(N)=C(C)C1=O)[C@@H]2COC(N)=O | 11.5
CCOc1ccc(Cl)cc1C1=CC(=O)C[C@H](c2ccc(OC)cc2)C1 | 1.92
COC(=O)C1=CN(c2ccc(OC)cc2OC)C(N)=C(C#N)C1c1ccccc1F (stereo unspecified) | 1.23
O=C(Nc1ccc(Br)cn1)c1cccc2ccccc12 | 1.97
O=C(c1cccc(S(=O)(=O)N2CCN(c3ccc(F)cc3)CC2)c1)N1CCCC(C(F)(F)F)C1 (stereo unspecified) | 16
CC1CN(S(=O)(=O)c2cccc(C(=O)Nc3cc(Cl)ccc3N3CCOCC3)c2)CC(C)O1 (stereo unspecified) | > 50
COC(=O)c1cn(C(=O)c2ccc(C)cc2C)c2ccccc12 | 7.53
CCOC(=O)N1CCN(C(=O)C2CCC(=O)N(CCCN3CCCC3=O)C2)CC1 (stereo unspecified) | 10.5
CNC(=O)C1CC(=O)N(c2ccc(OCC(=O)Nc3ccccc3)cc2)C1 (stereo unspecified) | > 50
CC1(C)Cc2c(c(-c3ccco3)nc3sc4c(NCCN5CCOCC5)ncnc4c23)CO1 | 3.92

SMILES | AC50 [µM]
O=C1c2cccc3c(N4CCCCC4)ccc(c23)C(=O)N1c1cccc(O)c1 | 24.3
Cc1ncc(CO)c(/C=N/Nc2ccc(C(F)(F)F)cn2)c1O | 1.18
COC(=O)c1ccc(S(=O)(=O)N2CCc3ccccc32)cc1 | 19.1
COc1cccc(/C=N/NC(=O)C(=O)N/N=C/c2cccc(OC)c2O)c1O | 40.1
NS(=O)(=O)c1ccc(CCNc2nn3c(-c4cccc(OC(F)(F)F)c4)cnc3s2)cc1 | 1.99
O=C(/C=C/c1ccco1)NC(=S)Nc1nc(-c2ccc3ccccc3c2)cs1 | 3.34
O=C1NC(=Nc2ccc(O)cc2)S/C1=C/c1ccco1 | 4.91
Cc1ccc2c(C)c3ccc4ccccc4c3c[n+]2c1 | 1.06
Cc1ccc(S(=O)(=O)N2CCCCC2CCNC(=O)C(=O)NCc2ccccc2)cc1 (stereo unspecified) | 3.29
Cc1nnc(NC(=O)CSc2nccn2-c2cccc(C)c2C)s1 | 7.08
COc1ccc(/C(C)=N/NC(=O)c2cccc(S(=O)(=O)N3CCCC3)c2)c(O)c1 | > 50
COc1ccc(CNCC(=O)Nc2ccccc2-n2cccc2)cc1 | 6.21
COc1cccc(Nc2nc(-c3sc(NC(=O)c4ccccc4)nc3C)cs2)c1 | 11.6
N#CCC(=O)N/N=C/c1cn(Cc2cccc3ccccc23)c2ccccc12 | 2.86
Cn1cccc1/C=C1\SC(=Nc2ccc(O)cc2)NC1=O | 0.315
COc1cc(/C=C2\SC(=Nc3ccc(Cl)c(C(=O)O)c3)NC2=O)c(Br)c(Br)c1O | 6.66
Cc1c(C(=O)N/N=C/c2c(O)ccc3ccccc23)nnn1-c1nonc1N | 0.462
N#C/C(=C(/O)c1ccc(Br)s1)c1nc2ccccc2[nH]1 | 3.88
COc1ccc(OC)c(-c2cnc(OC(C)(C)C)nc2OC(C)(C)C)c1 | 13.9
COc1ccc(OC)c2[nH]c(C(=O)N/N=C/c3ccccc3O)cc12 | 2.6
COc1cc2c(cc1OC)C(C)N(C(=O)Nc1cc(C)cc(C)c1)CC2 (stereo unspecified) | 3.03
N#CC1=C(N)Oc2c(ccc3cccnc23)C1c1ccccc1 (stereo unspecified) | 2.97
Cc1cc(C)c(/C=C2\C(=O)Nc3ccccc32)[nH]1 | 10.8

SMILES | AC50 [µM]
COc1cc(OC)c2c(-c3cccc(-c4ccc(OC)c(OC)c4)c3)cc(=O)oc2c1 | 0.594
Cc1ccc(C)c(C2NC(=O)c3ccccc3N2)c1 (stereo unspecified) | 2.91
CN1C(=O)c2cccc3c(N)ccc(c23)C1=O | 18.3
O=Cc1ccccc1OCc1ccc2c(c1)OCO2 | 14.5
O=C(N/N=C/c1ccccc1OC(F)F)c1cc(-c2ccncc2)nc2ccccc12 | 0.798
COc1cc(-c2nccc3cc4c(cc23)OCO4)cc(OC)c1OC | 6.02
CCOc1ccc(NC(=O)CN(c2ccc([N+](=O)[O-])cc2)S(=O)(=O)c2ccccc2)cc1 | 18.1
c1ccc2c(c1)C1=NCCN1c1ccccc1-2 | 2.93
CCOC(=O)c1oc2ccc(S(=O)(=O)n3nc(-c4ccccc4)cc3N)cc2c1C | 6.82
COc1ccccc1/C=C/C=N/NC(=O)CCn1cnc2ccccc21 | 8.01
COc1cc(/C=C2/SC(=S)N(Cc3ccccc3)C2=O)cc(Cl)c1O | 12.1
O=C(CSC1=NNC(c2ccccn2)S1)Nc1ccccc1 (stereo unspecified) | > 50
COc1ccc([C@H]2CC(=O)C=C(c3ccc(OC)cc3OC)C2)cc1 | 0.681
NS(=O)(=O)c1ccc(NNC(=O)c2ccc(Br)o2)c([N+](=O)[O-])c1 | 8.91
O=C1c2ccccc2C(=O)N1Cc1cnc(N2CCN(c3ccccc3)CC2)s1 | 44.1
N#C/C(=C/c1ccc(N2CCCCC2)o1)C(=O)Nc1ccc2ccccc2c1 | 6.64
COc1ccc(S(=O)(=O)N(C(=O)C(C)C)c2ccc3oc(=O)sc3c2)cc1 | 7.6
COc1cc(C(=O)Nc2ccc3c(c2)ncn3C)cc(OC)c1OC | 3.9
COc1ccc(OC)c(C(=O)Cn2nnc(-c3ccc(N4CCOCC4)cc3)n2)c1 | 31.1
O=P(Oc1ccc(-c2ccccc2)cc1)(N1CC1)N1CC1 | > 50
CCC1=Nc2cc(C(=O)NCC3CCCO3)ccc2Sc2ccc(Cl)cc21 (stereo unspecified) | 7.26
Cc1cc(Nc2ccc(Br)cc2)nc2ccccc12 | 21.1
CN(C)CCCNc1c2ccccc2nc2ccccc12 | 0.879
